# Laboratory results: ChEMBL document CHEMBL4308863, “Oxidative nucleophilic substitution selectively produces cambinol derivatives with antiproliferative activity on bladder cancer cell lines” (Bioorg Med Chem Lett, 2019)
# Active and inactive are the calls of the source. The calls are words filed in the database; no cut-off is given here.
# Experiments:
# EJ [1] = assay: Antiproliferative activity against human MGHU1 cells expressing wild-type p53 assessed as decrease in cell viability after 24 hrs by MTT assay; type: functional, cell-based
# EJ [2] = assay: Antiproliferative activity against human MGHU1 cells expressing wild-type p53 assessed as decrease in cell viability after 3 hrs by MTT assay; type: functional, cell-based
# [3] = molecular target: T1, NAD-dependent protein deacetylase sirtuin-1 (Homo sapiens) (UniProt Q96EB6); assay: Inhibition of SIRT1 (unknown origin) at 10 uM using acetylated peptide p53K382 as substrate preincubated for 15 mins followed by substrate addition and measured after 40 mins by fluorescence assay
# T1 sequence (whole entry): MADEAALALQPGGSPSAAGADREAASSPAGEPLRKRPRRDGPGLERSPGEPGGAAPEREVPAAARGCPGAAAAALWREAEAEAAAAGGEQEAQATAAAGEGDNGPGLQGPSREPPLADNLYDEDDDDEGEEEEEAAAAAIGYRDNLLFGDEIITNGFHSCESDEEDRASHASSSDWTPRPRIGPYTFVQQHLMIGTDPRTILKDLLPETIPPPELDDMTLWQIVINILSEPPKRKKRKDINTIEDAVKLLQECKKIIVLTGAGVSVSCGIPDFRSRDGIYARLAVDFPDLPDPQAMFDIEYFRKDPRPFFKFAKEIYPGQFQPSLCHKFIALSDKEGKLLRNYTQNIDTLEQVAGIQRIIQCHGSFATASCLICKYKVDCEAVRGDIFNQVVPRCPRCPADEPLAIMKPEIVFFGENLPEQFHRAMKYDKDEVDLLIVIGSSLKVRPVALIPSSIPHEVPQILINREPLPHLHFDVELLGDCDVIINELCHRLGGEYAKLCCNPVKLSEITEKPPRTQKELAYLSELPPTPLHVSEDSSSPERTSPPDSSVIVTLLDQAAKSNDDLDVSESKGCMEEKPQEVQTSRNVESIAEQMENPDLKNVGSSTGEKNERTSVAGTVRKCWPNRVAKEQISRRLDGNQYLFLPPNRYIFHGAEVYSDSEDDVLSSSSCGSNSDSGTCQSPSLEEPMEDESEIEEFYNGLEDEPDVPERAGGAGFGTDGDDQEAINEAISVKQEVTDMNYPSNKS
# RT-112 [4] = assay: Antiproliferative activity against human RT112 cells expressing p53 mutant assessed as decrease in cell viability after 3 hrs by MTT assay; type: functional, cell-based; conditions: RT-112, 3 h
# [5] = Cytotoxicity against human C3PV cells assessed as decrease in cell viability after 3 hrs by MTT assay; type: cell-based
# RT-112 [6] = assay: Antiproliferative activity against human RT112 cells expressing p53 mutant assessed as decrease in cell viability after 24 hrs by MTT assay; type: functional, cell-based; conditions: RT-112, 24 h
# [7] = Cytotoxicity against human C3PV cells assessed as decrease in cell viability after 24 hrs by MTT assay; type: cell-based
# [8] = molecular target: T1, NAD-dependent protein deacetylase sirtuin-1 (Homo sapiens); assay: Inhibition of SIRT1 in human MGHU1 cells assessed as stabilization of p53 by measuring increase in p53 acetylation after 3 to 24 hrs by Western blot analysis; type: cell-based
# [9] = molecular target: T1, NAD-dependent protein deacetylase sirtuin-1 (Homo sapiens); assay: Inhibition of SIRT1 in human MGHU1 cells assessed as induction of p53 after 3 to 24 hrs by Western blot analysis; type: cell-based
# EJ [10] = assay: Effect on acetylated-p53 expression in human MGHU1 cells after 3 to 24 hrs by Western blot analysis; type: functional, cell-based
# EJ [11] = assay: Inhibition of colony formation in human MGHU1 cells expressing wild-type p53 at […] uM after 3 to 24 hrs by crystal violet staining based assay; type: functional, cell-based
# RT-112 [12] = assay: Inhibition of colony formation in human RT112 cells expressing p53 mutant at 24.50 to 28.74 uM after 3 to 24 hrs by crystal violet staining based assay; type: functional, cell-based
# EJ [13] = assay: Effect on acetylated-histone H3 expression in human MGHU1 cells after 3 to 24 hrs by Western blot analysis; type: functional, cell-based
inhibition [3],inhibition [8],inhibition [9],Compound,IC50 (EJ [1]) [µM],IC50 (EJ [2]) [µM],IC50 (RT-112 [4]) [µM],IC50 [5] [µM],IC50 (RT-112 [6]) [µM],IC50 [7] [µM],Activity (EJ [10]),inhibition (EJ [11]),inhibition (RT-112 [12]),Activity (EJ [13])
inactive,–,–,O=c1[nH]c(Nc2ccc(O)cc2)nc(-c2ccccc2)c1Cc1c(O)ccc2ccccc12,92.4,90.9,> 300,> 300,265,> 300,–,–,–,–
inactive,inactive,inactive,CCCCNc1nc(-c2ccccc2)c(Cc2c(O)ccc3ccccc23)c(=O)[nH]1,28.7,24.5,1.9,47.6,1.6,> 300,inactive,Active,Active,inactive
inactive,–,–,O=c1[nH]c(NCCc2ccc(O)c(O)c2)nc(-c2ccccc2)c1Cc1c(O)ccc2ccccc12,71.7,12.6,35.9,> 300,79.3,> 300,–,–,–,–

# Further lines, the compound ahead of its results:
Compound,inhibition [3],inhibition [8],inhibition [9],IC50 (EJ [1]) [µM],IC50 (EJ [2]) [µM],IC50 (RT-112 [4]) [µM],IC50 [5] [µM],IC50 (RT-112 [6]) [µM],IC50 [7] [µM],Activity (EJ [10]),inhibition (EJ [11]),inhibition (RT-112 [12]),Activity (EJ [13])
O=c1[nH]c(NCCO)nc(-c2ccccc2)c1Cc1c(O)ccc2ccccc12,inactive,–,–,> 300,282,7.2,> 300,96.6,> 300,–,–,–,–
C#CCNc1nc(-c2ccccc2)c(Cc2c(O)ccc3ccccc23)c(=O)[nH]1,inactive,–,–,148,16.8,91.2,> 300,130,> 300,–,–,–,–
O=c1[nH]c(NCCc2ccc(O)cc2)nc(-c2ccccc2)c1Cc1c(O)ccc2ccccc12,inactive,–,–,82.1,22.1,48.9,145,106,> 300,–,–,–,–
COc1ccc(Nc2nc(-c3ccccc3)c(Cc3c(O)ccc4ccccc34)c(=O)[nH]2)cc1,inactive,–,–,63.7,160,18.5,> 300,138,> 300,–,–,–,–
CCN(CC)c1nc(-c2ccccc2)c(Cc2c(O)ccc3ccccc23)c(=O)[nH]1,inactive,–,–,79.7,15.4,32.2,> 300,155,> 300,–,–,–,–
O=c1[nH]c(=S)[nH]c(-c2ccccc2)c1Cc1c(O)ccc2ccccc12 [CAMBINOL],–,–,–,242,95.9,37.9,39.9,125,> 300,–,–,–,–
